Assay [1] can be described thus: Minimum antiviral concentration required to reduce virus-induced cytopathogenicity against HSV-2 (G) in E6SM cells. Format: functional.
The subject of assay [2] is HEL. In words: Minimum antiviral concentration required to reduce virus-induced cytopathogenicity against VZV (OKA) in HEL cells. Format: functional, Homo sapiens.
The nature of assay [3]: Minimum antiviral concentration required to reduce virus-induced cytopathogenicity against TK' HSV-1 (VMW 1837) in E6SM cells. Format: functional.
The nature of assay [4]: Minimum cytotoxic concentration required to cause alteration of normal E6SM cell culture morphology. Format: functional. The note with it: read-out: Min cytotoxic concentration.
A short description of assay [5]: Minimum antiviral concentration required to reduce virus-induced cytopathogenicity against TK-HSV-1 (B2006) in E6SM cells. Format: functional.
Assay [6] in a line: Minimum antiviral concentration required to reduce virus-induced cytopathogenicity against HSV-1 (KOS) in E6SM cells. Format: functional.
Assay [7] deals with HEL. In words: Minimum antiviral concentration required to reduce virus-induced cytopathogenicity against VZV (YS) in HEL cells. Format: functional, Homo sapiens.
The subject of assay [8] is HEL. The experiment in a line: Minimum antiviral concentration required to reduce virus-induced cytopathogenicity against TK' VZV (YS/R) in HEL cells. Format: functional, Homo sapiens.
Assay [9] is described as follows: Minimum antiviral concentration required to reduce virus-induced cytopathogenicity against vaccinia virus in E6SM cells. Format: functional.
Assay [10] concerns HEL. The experiment in a line: Minimum antiviral concentration required to reduce virus-induced cytopathogenicity against TK' VZV (07/1) in HEL cells. Format: functional, Homo sapiens.
The test system of assay [11] is HEL. The experiment in a line: Minimum cytotoxic concentration required to cause alteration of normal human […] (HEL) morphology. Format: functional. The note with it: read-out: Min cytotoxic concentration.
Assay [12] is described as follows: Minimum antiviral concentration required to reduce virus-induced cytopathogenicity against Vaccinia virus in E6SM cells. Format: functional.
Assay [13] is described as follows: Minimum antiviral concentration required to reduce virus-induced cytopathogenicity against TK' HSV-1 (B2006) in E6SM cells. Format: functional.
Assay [14] deals with HEL. In words: Minimum cytotoxic concentration required to cause alteration of normal human […] (HEL) morphology in HEL cells. Format: functional. The note with it: read-out: Min cytotoxic concentration.

As for `O=c1[nH]c(=O)n([C@H]2C[C@H](O)[C@@H](CO)O2)cc1C(F)=C(F)F`, the Min antiviral concentration in [1] is 13 µg/mL; in assay [2], 0.16 µg/mL; in assay [3], 1.5 µg/mL; in [5], 13 µg/mL; in assay [6], 0.05 µg/mL; in [7], 0.55 µg/mL. In addition, the Min antiviral concentration in [8] worked out at 11.6 µg/mL; in assay [9], 8 µg/mL; in [10] it was 13.6 µg/mL. Further, the figures for the MCC in [4] and in assay [11] were 100 µg/mL and 10 µg/mL, respectively.
Consider `O=c1[nH]c(=O)n([C@H]2C[C@H](O)[C@@H](CO)O2)cc1/C=C/Br` [BRIVUDINE], for which the Min antiviral concentration in assay [1] is 100 µg/mL; in assay [2], 0.002 µg/mL; in assay [3], 40 µg/mL; in [6] it was 0.02 µg/mL; in assay [7], 0.004 µg/mL; in [8], >10 µg/mL. The Min antiviral concentration in assay [12] was 0.3 µg/mL; in [13], 100 µg/mL; in assay [10], >10 µg/mL. Also, the MCC in assay [4] and in [14] was 200 µg/mL each time.
